In US10758534B2 (Vertex Pharmaceuticals Incorporated, priority 2014, dated 2020):

Target: T1, F508del (Homo sapiens, UniProt P13569, DEL508-508)
T1 construct: expressed in transfected cells
Experiment: Protocol 1: membrane potential optical assay (FLIPR III, voltage sensing dye), identification of potentiator compounds
Assay type: cell-based
Settings: Table 3, compounds of Table 1
How it was run: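 Mouse NIH 3T3 fibroblasts stably expressing F508del, temperature-corrected at 27 °C for 24 h, pretreated with compound, then loaded with voltage-sensing redistribution dye. Forskolin was added in a single step with a chloride gradient (chloride-free gluconate bath; Bath Solution #1 HEPES pH 7.4). Membrane-potential fluorescence read on FLIPR III.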

T1 sequence (P13569 with tags, fused parts or gaps DEL508-508): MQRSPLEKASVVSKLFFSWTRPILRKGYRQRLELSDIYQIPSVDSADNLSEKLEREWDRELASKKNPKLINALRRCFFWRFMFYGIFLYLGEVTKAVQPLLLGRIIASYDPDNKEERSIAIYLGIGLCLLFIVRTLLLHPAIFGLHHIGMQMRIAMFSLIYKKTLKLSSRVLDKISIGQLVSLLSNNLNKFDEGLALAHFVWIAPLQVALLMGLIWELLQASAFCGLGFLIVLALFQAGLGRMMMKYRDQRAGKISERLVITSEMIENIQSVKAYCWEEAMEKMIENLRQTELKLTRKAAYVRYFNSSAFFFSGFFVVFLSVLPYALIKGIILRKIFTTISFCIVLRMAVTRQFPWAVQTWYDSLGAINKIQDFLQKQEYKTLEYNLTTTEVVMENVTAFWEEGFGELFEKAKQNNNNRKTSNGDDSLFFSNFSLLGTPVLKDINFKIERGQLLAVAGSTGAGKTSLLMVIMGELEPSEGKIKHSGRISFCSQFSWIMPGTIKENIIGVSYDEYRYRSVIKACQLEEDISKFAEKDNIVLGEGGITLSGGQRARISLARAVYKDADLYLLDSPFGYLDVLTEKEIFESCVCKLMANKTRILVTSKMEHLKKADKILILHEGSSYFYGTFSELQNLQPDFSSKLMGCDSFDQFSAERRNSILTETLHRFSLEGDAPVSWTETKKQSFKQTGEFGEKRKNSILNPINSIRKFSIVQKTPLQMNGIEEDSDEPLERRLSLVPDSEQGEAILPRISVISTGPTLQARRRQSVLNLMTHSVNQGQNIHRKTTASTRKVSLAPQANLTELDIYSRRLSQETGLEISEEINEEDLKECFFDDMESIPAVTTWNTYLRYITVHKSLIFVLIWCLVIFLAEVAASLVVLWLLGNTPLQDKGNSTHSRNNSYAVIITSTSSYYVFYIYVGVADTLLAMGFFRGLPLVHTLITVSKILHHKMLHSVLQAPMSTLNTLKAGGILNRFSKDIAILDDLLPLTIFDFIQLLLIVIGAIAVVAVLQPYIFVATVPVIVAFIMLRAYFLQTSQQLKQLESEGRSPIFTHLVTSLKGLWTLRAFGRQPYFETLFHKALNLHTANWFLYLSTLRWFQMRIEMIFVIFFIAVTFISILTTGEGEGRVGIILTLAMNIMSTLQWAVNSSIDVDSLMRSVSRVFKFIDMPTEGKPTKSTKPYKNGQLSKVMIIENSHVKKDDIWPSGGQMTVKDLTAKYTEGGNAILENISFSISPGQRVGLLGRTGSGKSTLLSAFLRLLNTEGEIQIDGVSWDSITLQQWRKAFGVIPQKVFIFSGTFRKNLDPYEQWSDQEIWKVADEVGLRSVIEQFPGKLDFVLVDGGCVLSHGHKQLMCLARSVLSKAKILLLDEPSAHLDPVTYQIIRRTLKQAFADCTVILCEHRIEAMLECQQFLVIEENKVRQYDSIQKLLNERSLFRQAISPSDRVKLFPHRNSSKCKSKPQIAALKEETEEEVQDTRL

EC30 | Compound
++ (“++” means between 3 uM and 10 uM) | COc1ccc(C(=O)NS(=O)(=O)c2cccc(N)n2)c(N2C[C@@H](C)CC2(C)C)n1 [Compound 1536, N-[(6-amino-2-pyridyl)sulfonyl]-6-methoxy-2-[(4S)-2,2,4-trimethylpyrrolidin-1-yl]pyridine-3-carboxamide]
+++ (“+++” means <3 uM) | C[C@@H]1CN(c2nc(C(C)(C)C)c(/C=C/C3CC3)cc2C(=O)NS(=O)(=O)c2cccc(N)n2)C(C)(C)C1 [Compound 1665, N-[(6-amino-2-pyridyl)sulfonyl]-6-tert-butyl-5-[(E)-2-cyclopropylvinyl]-2-[(4S)-2,2,4-trimethylpyrrolidin-1-yl]pyridine-3-carboxamide]
++ (“++” means between 3 uM and 10 uM) | CC(C)(C)c1ccc(C(=O)NS(=O)(=O)c2cccc(N)n2)c(C2CCCC2)n1 [Compound 1219, N-[(6-amino-2-pyridyl)sulfonyl]-6-tert-butyl-2-cyclopentyl-pyridine-3-carboxamide]
+++ (“+++” means <3 uM) | CCOCCOCCOc1ncc(-c2ccc(C(=O)NS(=O)(=O)c3cccc(N)n3)c(N3C[C@@H](C)CC3(C)C)n2)cc1C [Compound 1715, N-[(6-amino-2-pyridyl)sulfonyl]-6-[6-[2-(2-ethoxyethoxy)ethoxy]-5-methyl-3-pyridyl]-2-[(4S)-2,2,4-trimethylpyrrolidin-1-yl]pyridine-3-carboxamide]
++ (“++” means between 3 uM and 10 uM) | CC1CN(c2ncccc2C(=O)NS(=O)(=O)c2cccc(NCc3nccs3)n2)C(C)(C)C1 (centres unmarked) [Compound 1865, N—[[6-(thiazol-2-ylmethylamino)-2-pyridyl]sulfonyl]-2-(2,2,4-trimethylpyrrolidin-1-yl)pyridine-3-carboxamide]
+++ (“+++” means <3 uM) | CCOc1ccc(-c2ccc(C(=O)NS(=O)(=O)c3cccc(N)n3)c(Oc3c(C)cc(C)cc3C)n2)cc1 [Compound 1337, N-[(6-amino-2-pyridyl)sulfonyl]-6-(4-ethoxyphenyl)-2-(2,4,6-trimethylphenoxy)pyridine-3-carboxamide]
+++ (“+++” means <3 uM) | CC(C)(C)c1ccc(C(=O)NS(=O)(=O)c2cccc(N)n2)c(N2CCC(Cc3ccccc3)C2(C)C)n1 (centres unmarked) [Compound 1852, N-[(6-amino-2-pyridyl)sulfonyl]-2-(3-benzyl-2,2-dimethyl-pyrrolidin-1-yl)-6-tert-butyl-pyridine-3-carboxamide]
++ (“++” means between 3 uM and 10 uM) | COc1cccc(-c2ccc(C(=O)NS(=O)(=O)c3cccc(N)n3)c(N3[C@H](C)CC[C@@H]3C)n2)n1 [Compound 1141, N-[(6-amino-2-pyridyl)sulfonyl]-2-[(2S,5R)-2,5-dimethylpyrrolidin-1-yl]-6-(6-methoxy-2-pyridyl)pyridine-3-carboxamide]
+++ (“+++” means <3 uM) | CCOc1nc(-c2ccc(C(=O)NS(=O)(=O)c3cccc(N)n3)c(N3CC(C)CC3(C)C)n2)ccc1C (centres unmarked) [Compound 1363, N-[(6-amino-2-pyridyl)sulfonyl]-6-(6-ethoxy-5-methyl-2-pyridyl)-2-(2,2,4-trimethylpyrrolidin-1-yl)pyridine-3-carboxamide]
++ (“++” means between 3 uM and 10 uM) | CC(=O)N1CCc2cc(Nc3cccc(S(=O)(=O)NC(=O)c4cccnc4N4CC(C)CC4(C)C)n3)ccc21 (centres unmarked) [Compound 1877, N—[[6-[(1-acetylindolin-5-yl)amino]-2-pyridyl]sulfonyl]-2-(2,2,4-trimethylpyrrolidin-1-yl)pyridine-3-carboxamide]

Compound | EC30
CC(C)COc1cc(F)cc(-c2ccc(C(=O)NS(=O)(=O)c3cccc(N)n3)c(N3CC(C)CCC3C)n2)c1 (single isomer, unassigned) [Compound 1855, N-[(6-amino-2-pyridyl)sulfonyl]-2-(2,5-dimethyl-1-piperidyl)-6-(3-fluoro-5-isobutoxy-phenyl)pyridine-3-carboxamide] | +++ (“+++” means <3 uM)
